Literature values as cited in PMC5427923, “A novel CCR2 antagonist inhibits atherogenesis in apoE deficient mice by achieving high receptor occupancy” (Scientific Reports, 2017).

Assays:
CCR2 = system: CCR2; parameters: method as in PMID 16210643; settings: single oral dose of 50 mg/kg, mice; ref [35]; cited from earlier work
apoE−/− mice = system: apoE−/− mice; parameters: method as in Aiello et al. [11]; settings: ref Aiello et al. [11], cited from earlier work
hCCR2b = settings: hCCR2; ref Vilums et al. [24]; cited from earlier work

Structure (SMILES)	CCR2 inhibition (CCR2)	size of early and advanced atherosclerotic lesions (apoE−/− mice; apoE−/− mice)	inflammatory monocyte levels (apoE−/− mice; up to 6 hours after oral infusion, lost at 9 hours)	RT (hCCR2b) [min]
CCO[C@H]1CN(C2CCC(O)(c3ccc4c(c3)OCO4)CC2)C[C@@H]1NC(=O)CNC(=O)c1cccc(C(F)(F)F)c1 (mixture of isomers) [INCB3344]	approximately 75%	failed to decrease	significantly reduced	
CO[C@@H]1COCC[C@@H]1N[C@@H]1CC[C@@](C(=O)N2CCc3ncc(C(F)(F)F)cc3C2)(C(C)C)C1 [MK-0812, reference compound]				92
